Reference: patent EP4596574A1, “GLP-1/GCG/GIP TRIPLE-RECEPTOR AGONIST AND USE THEREOF” (Sunshine Lake Pharma Co., Ltd., priority 2022, dated 2024)
Marks after values point to notes of the source that are not given here.

Columns and labels:
[1] = Long-term repeated administration in diet-induced obese C57BL/6 mice (DIO); assay type: in vivo, C57/BL6 mice
From the text: Experimental methods: C57/BL6 mice were randomly divided into a normal group (NFD) and a model group (HFD) at the fifth week of age. The normal group was fed with ordinary maintenance feed, while the other groups were fed with high-fat feed D12492. The body weight and food intake of mice were monitored every 3 weeks. After 16 weeks of feeding, the body weights of mice in the model group and the normal group were (49.0±2.3) g and (31.0±2.0) g, respectively, and the difference between the two groups was statistically significant. […] Body weight and food intake were measured before each administration. After 3 weeks of administration, an intraperitoneal glucose tolerance test was performed. The mice were slaughtered and samples were collected 72 h after the last administration. The liver weight was recorded, and the liver pathological conditions and blood biochemical indexes of each group were tested.

[2] = target: T1, GLP-1R (Homo sapiens, UniProt P43220); experiment: In vitro cell activity, cAMP production in HEK293 cells expressing GLP-1R; assay type: cell-based
T1 construct: expressed in transfected cells; host or cells: HEK293 (HEK293-GLP-1R)
T1 sequence (P43220 24-463, species assumed): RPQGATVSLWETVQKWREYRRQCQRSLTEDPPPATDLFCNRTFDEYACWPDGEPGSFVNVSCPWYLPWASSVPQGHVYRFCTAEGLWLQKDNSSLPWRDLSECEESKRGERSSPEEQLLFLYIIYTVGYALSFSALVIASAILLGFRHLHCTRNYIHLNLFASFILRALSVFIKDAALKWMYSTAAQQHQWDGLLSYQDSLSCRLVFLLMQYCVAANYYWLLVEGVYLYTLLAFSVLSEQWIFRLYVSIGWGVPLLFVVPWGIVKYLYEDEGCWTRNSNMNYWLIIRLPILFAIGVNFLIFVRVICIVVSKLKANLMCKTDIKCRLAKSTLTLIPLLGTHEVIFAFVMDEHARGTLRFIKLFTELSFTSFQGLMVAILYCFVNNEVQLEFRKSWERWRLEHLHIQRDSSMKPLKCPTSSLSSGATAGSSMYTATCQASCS
Procedure, shortened: (§1)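 Assay format: cells at 4×10^5 cells/mL, cAMP sensed by d2/cryptate FRET pair, dual-wavelength read at 665 and 620 nm. Potency expressed as EC50 from nonlinear fitting.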

[3] = Glucose tolerance assessment in normal C57BL/6 mice (Example 5); assay type: in vivo
Method: Twelve hours after the single administration, the animals were fasted for 12 hours and had free access to water. Blood was collected from the tail vein to determine the basal blood glucose level of each group of animals, and then 2 g/kg glucose solution was injected intraperitoneally. Blood glucose was tested at 15, 30, 60, and 90 min after glucose administration. The blood glucose concentration-time curve was drawn according to the blood glucose values measured at different time points, and the AUC0~90min of each dose group was calculated as shown in Table 5 and Figure 2. Table 5: Effects of single administration of HEC-PT86, HEC-PT96, HEC-PT112, HEC-PT113, HEC-PT114, and HEC-PT119 on glucose tolerance in normal C57 mice 24 h after administration

[4] = target: T2, GIPR (Homo sapiens, UniProt P48546); experiment: In vitro cell activity, cAMP production in HEK293 cells expressing GIPR; assay type: cell-based
T2 construct: expressed in transfected cells; host or cells: HEK293 (HEK293-GIPR)
T2 sequence (P48546 22-466): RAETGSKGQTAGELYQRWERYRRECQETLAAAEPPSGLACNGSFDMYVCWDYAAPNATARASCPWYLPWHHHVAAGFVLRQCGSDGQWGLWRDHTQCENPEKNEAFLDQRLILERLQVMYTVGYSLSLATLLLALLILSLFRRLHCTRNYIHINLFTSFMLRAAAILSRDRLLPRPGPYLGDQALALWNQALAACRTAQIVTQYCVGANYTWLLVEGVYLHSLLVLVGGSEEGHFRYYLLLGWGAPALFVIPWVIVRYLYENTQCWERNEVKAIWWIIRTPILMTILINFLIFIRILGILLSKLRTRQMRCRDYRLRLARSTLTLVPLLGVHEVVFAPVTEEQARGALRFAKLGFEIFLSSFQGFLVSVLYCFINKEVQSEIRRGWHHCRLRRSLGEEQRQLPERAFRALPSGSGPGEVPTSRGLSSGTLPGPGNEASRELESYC
Procedure, shortened: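 cAMP accumulation is quantified by homogeneous TR-FRET (cAMP-d2 plus anti-cAMP cryptate) in GIPR-expressing HEK293 cells seeded from a 4×10^5 cells/mL suspension and treated with compound. The signal ratio is plotted against concentration and fitted to a four-parameter curve to give EC50.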

[5] = target: T3, GCGR (Homo sapiens, UniProt P47871); experiment: In vitro cell activity, cAMP production in HEK293 cells expressing GCGR; assay type: cell-based
T3 construct: expressed in transfected cells; host or cells: HEK293 (HEK293-GCGR)
T3 sequence (P47871 26-477, species assumed): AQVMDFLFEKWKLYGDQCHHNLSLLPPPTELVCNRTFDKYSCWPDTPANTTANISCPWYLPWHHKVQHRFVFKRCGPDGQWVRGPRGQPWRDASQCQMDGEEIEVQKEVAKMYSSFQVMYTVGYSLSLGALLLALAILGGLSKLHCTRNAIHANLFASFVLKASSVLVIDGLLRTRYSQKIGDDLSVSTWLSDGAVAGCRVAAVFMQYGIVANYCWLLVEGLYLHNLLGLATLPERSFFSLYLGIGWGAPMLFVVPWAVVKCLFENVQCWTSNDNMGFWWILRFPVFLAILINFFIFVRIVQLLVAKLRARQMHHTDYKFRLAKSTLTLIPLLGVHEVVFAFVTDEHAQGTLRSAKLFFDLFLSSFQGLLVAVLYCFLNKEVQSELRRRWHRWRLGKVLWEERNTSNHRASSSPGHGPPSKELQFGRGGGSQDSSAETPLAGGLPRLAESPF
Procedure, shortened: as §1

[6] = 10 nmol/kg s.c. once every 3 days, D7
[7] = 10 nmol/kg s.c. once every 3 days, D10
[8] = 10 nmol/kg s.c. once every 3 days, D13
[9] = 10 nmol/kg s.c. once every 3 days, D16
[10] = 10 nmol/kg s.c. once every 3 days, D19
[11] = 10 nmol/kg s.c. once every 3 days, D22
[12] = 10 nmol/kg s.c. once every 3 days, D25
[13] = 10 nmol/kg s.c. once every 3 days, D28
[14] = after 4 weeks of administration, same dose
[15] = long-term administration 10 nmol/kg, 72 h after the last administration
[16] = long-term administration 10 nmol/kg, blood biochemical index

CC[C@H](C)[C@H](NC(=O)[C@H](Cc1ccccc1)NC(=O)[C@H](C)NC(=O)C(C)(C)NC(=O)[C@H](CCC(N)=O)NC(=O)[C@H](CCCNC(=N)N)NC(=O)[C@H](CCCCNC(=O)COCCOCCNC(=O)CC[C@H](NC(=O)CCCCCCCCCCCCCCCCC(=O)O)C(=O)O)NC(=O)[C@H](CCC(=O)O)NC(=O)[C@H](CC(=O)O)NC(=O)[C@H](CC(C)C)NC(=O)[C@H](CC(C)C)NC(=O)[C@@H](NC(=O)[C@H](CO)NC(=O)[C@H](Cc1ccc(O)cc1)NC(=O)[C@H](CC(=O)O)NC(=O)[C@H](CO)NC(=O)[C@@H](NC(=O)[C@](C)(Cc1ccccc1F)NC(=O)[C@@H](NC(=O)CNC(=O)[C@H](CCC(N)=O)NC(=O)C(C)(C)NC(=O)[C@@H](N)Cc1ccc(O)cc1)[C@@H](C)O)[C@@H](C)O)[C@@H](C)CC)C(=O)N[C@@H](CCC(=O)O)C(=O)N[C@@H](Cc1ccc(O)cc1)C(=O)N[C@@H](CC(C)C)C(=O)N[C@@H](CC(C)C)C(=O)N[C@@H](C)C(=O)NCC(=O)NCC(=O)N1CCC[C@H]1C(=O)N[C@@H](CO)C(=O)N[C@@H](CO)C(=O)NCC(=O)N[C@@H](C)C(=O)N1CCC[C@H]1C(=O)N1CCC[C@H]1C(=O)N1CCC[C@H]1C(=O)N[C@@H](CO)C(N)=O [HEC-PT112]
Cumulative food intake (g/pcs) D7 [1, 6]: 5.6 g/pcs
Weight gain rate (%) D7 [1, 6]: -21.3±4.0%
Cumulative food intake (g/pcs) D10 [1, 7]: 7.8 g/pcs
Weight gain rate (%) D10 [1, 7]: -28.6±7.0%
Cumulative food intake (g/each) D13 [1, 8]: 10.6 g/each
Weight gain rate (%) D13 [1, 8]: -32.4±7.7%
Cumulative food intake (g/each) D16 [1, 9]: 15.5 g/each
Weight gain rate (%) D16 [1, 9]: -34.0±7.1%
Cumulative food intake (g/each) D19 [1, 10]: 21.0 g/each
Weight gain rate (%) D19 [1, 10]: -34.5±5.7%
Cumulative food intake (g/each) D22 [1, 11]: 26.6 g/each
Weight gain rate (%) D22 [1, 11]: -35.6±5.6%
Cumulative food intake (g/each) D25 [1, 12]: 32.3 g/each
Weight gain rate (%) D25 [1, 12]: -36.4±5.1%
Cumulative food intake (g/each) D28 [1, 13]: 39.1 g/each
Weight gain rate (%) D28 [1, 13]: -36.2±4.3%
Cumulative food intake (g/each) D30 ([1]; 10 nmol/kg s.c. once every 3 days, D30): 43.0^a g/each
Weight gain rate (%) D31 ([1]; 10 nmol/kg s.c. once every 3 days, D31): -35.6±4.3^a %
Cumulative food intake (g/pcs) D0 ([1]; 10 nmol/kg s.c., D0): 2.3 g/pcs
Weight gain rate (%) D0 ([1]; 10 nmol/kg s.c., D0): 0.0±0.0%
Cumulative food intake (g/pcs) D1 ([1]; 10 nmol/kg s.c., D1): 2.5 g/pcs
Weight gain rate (%) D1 ([1]; 10 nmol/kg s.c., D1): -5.4±0.9%
Cumulative food intake (g/pcs) D2 ([1]; 10 nmol/kg s.c., D2): 2.9 g/pcs
Weight gain rate (%) D2 ([1]; 10 nmol/kg s.c., D2): -8.8±0.8%
Cumulative food intake (g/pcs) D3 ([1]; 10 nmol/kg s.c., D3): 3.5 g/pcs
Weight gain rate (%) D3 ([1]; 10 nmol/kg s.c., D3): -10.6±1.0%
Cumulative food intake (g/pcs) D4 ([1]; 10 nmol/kg s.c., D4): 4.1 g/pcs
Weight gain rate (%) D4 ([1]; 10 nmol/kg s.c., D4): -12.6±1.7%
liver function and blood lipids of DIO mice ([1]; after 4 weeks of administration): significantly improved the liver function and blood lipids
food intake inhibition effect compared with LY3298176 [1, 14]: certain advantages in inhibiting food intake
weight loss effect compared with LY3298176 [1, 14]: significantly better than that of LY3298176
Liver index/% [1, 15]: 3.0±0.0^a %
Liver/g [1, 15]: 0.9±0.1^a g
Weight/g [1, 15]: 29.7±2.5^a g
ALT (U/L) [1, 16]: 25.9±6.6^a U/L
AST (U/L) [1, 16]: 115.3±16.2^a U/L
CHOL (mmol/L) [1, 16]: 3.1±0.5^a mmol/L
TRIGL (mmol/L) [1, 16]: 0.6±0.1^a mmol/L
EC50 [2]: 0.183 nM
Blood glucose level (mM) 15 min ([3]; 3 nmol/kg s.c. single dose, 24 h after administration, 15 min after 2 g/kg glucose i.p.): 11.7 ± 2.6 mM
Blood glucose level (mM) 30 min ([3]; 3 nmol/kg s.c. single dose, 24 h after administration, 30 min after 2 g/kg glucose i.p.): 8.6 ± 1.9 mM
Blood glucose level (mM) 60 min ([3]; 3 nmol/kg s.c. single dose, 24 h after administration, 60 min after 2 g/kg glucose i.p.): 7.3 ± 0.7 mM
Blood glucose level (mM) 90 min ([3]; 3 nmol/kg s.c. single dose, 24 h after administration, 90 min after 2 g/kg glucose i.p.): 6.7 ± 0.6 mM
Blood glucose level (mM) 0 min ([3]; 3 nmol/kg s.c. single dose, 24 h after administration, basal before 2 g/kg glucose i.p.): 4.9 ± 1.3 mM
improvement of glucose tolerance compared with LY3298176 ([3]; 24 hours after a single administration, 3 nmol/kg): improved glucose tolerance in mice better than the positive control LY3298176
AUC0-90 min ([3]; blood glucose AUC, 3 nmol/kg s.c. single dose, 24 h after administration, 2 g/kg glucose i.p.): 726.2±82.4^a
EC50 [4]: 0.0534 nM
EC50 [5]: 0.871 nM
